{"source": "ChEMBL document CHEMBL4393743", "about": "“Anti-tumor activity evaluation of novel tubulin and HDAC dual-targeting inhibitors” (Bioorg Med Chem Lett, 2019)", "key": {"A549 [1]": {"test_system": "A549", "test": "Induction of apoptosis in human A549 cells assessed as live cells at 1 uM incubated for 72 hrs by Annexin V-FITC/propidium iodide-staining based flow cytometric analysis (reference value: 89.8%)", "format": "functional"}, "A549 [2]": {"test_system": "A549", "test": "Induction of apoptosis in human A549 cells assessed as late apoptotic cells at 0.1 uM incubated for 72 hrs by Annexin V-FITC/propidium iodide-staining based flow cytometric analysis (reference value: 5.69%)", "format": "functional"}, "A549 [3]": {"test_system": "A549", "test": "Induction of apoptosis in human A549 cells assessed as late apoptotic cells at 10 uM incubated for 72 hrs by Annexin V-FITC/propidium iodide-staining based flow cytometric analysis (reference value: 5.69%)", "format": "functional"}, "[4]": {"molecular_target": "Histone deacetylase (Homo sapiens) (UniProt Q13547+O15379+Q9UBN7+Q92769+Q9UQL6+Q8WUI4+Q9BY41+Q96DB2+P56524+Q9UKV0+Q969S8)", "details": "HeLa, at 1 µM", "description": "Inhibition of HDAC in human HeLa cell nuclear extracts at 1 uM"}, "A549 [5]": {"test_system": "A549", "test": "Induction of apoptosis in human A549 cells assessed as necrotic cells at 0.3 uM incubated for 72 hrs by Annexin V-FITC/propidium iodide-staining based flow cytometric analysis (reference value: 2.76%)", "format": "functional"}, "MCF7": {"test_system": "MCF7", "test": "Antiproliferative activity against human MCF7 cells assessed as cell growth inhibition incubated for 72 hrs by MTT assay", "format": "functional, cell-based", "details": "MCF7, 72 h"}, "A549 [6]": {"test_system": "A549", "test": "Induction of cell cycle arrest in human A549 cells assessed as accumulation at G2/M phase at 0.3 uM incubated for 36 hrs by propidium iodide staining based flow cytometry (reference value: 10.83%)", "format": "functional"}, "A549 [7]": {"test_system": "A549", "test": "Induction of cell cycle arrest in human A549 cells assessed as accumulation at G2/M phase at 1 uM incubated for 36 hrs by propidium iodide staining based flow cytometry (reference value: 10.83%)", "format": "functional"}, "SGC-7901": {"test_system": "SGC-7901", "test": "Antiproliferative activity against human SGC7901 cells assessed as cell growth inhibition incubated for 72 hrs by MTT assay", "format": "functional, cell-based", "details": "SGC-7901, 72 h"}, "A549 [8]": {"test_system": "A549", "test": "Induction of cell cycle arrest in human A549 cells assessed as accumulation at G0/G1 phase at 10 uM incubated for 36 hrs by propidium iodide staining based flow cytometry (reference value: 72.51%)", "format": "functional"}, "A549 [9]": {"test_system": "A549", "test": "Induction of cell cycle arrest in human A549 cells assessed as accumulation at S phase at 3 uM incubated for 36 hrs by propidium iodide staining based flow cytometry (reference value: 16.66%)", "format": "functional"}, "A549 [10]": {"test_system": "A549", "test": "Induction of cell cycle arrest in human A549 cells assessed as accumulation at G2/M phase incubated for 36 hrs by propidium iodide staining based flow cytometry", "format": "functional"}, "A549 [11]": {"test_system": "A549", "test": "Induction of cell cycle arrest in human A549 cells assessed as accumulation at G0/G1 phase at 3 uM incubated for 36 hrs by propidium iodide staining based flow cytometry (reference value: 72.51%)", "format": "functional"}, "A549 [12]": {"test_system": "A549", "test": "Induction of apoptosis in human A549 cells assessed as live cells at 0.3 uM incubated for 72 hrs by Annexin V-FITC/propidium iodide-staining based flow cytometric analysis (reference value: 89.8%)", "format": "functional"}, "A549 [13]": {"test_system": "A549", "test": "Induction of apoptosis in human A549 cells assessed as early apoptotic cells at 0.3 uM incubated for 72 hrs by Annexin V-FITC/propidium iodide-staining based flow cytometric analysis (reference value: 1.8%)", "format": "functional"}, "Tubulin": {"molecular_target": "Tubulin", "test": "Inhibition of tubulin polymerization (unknown origin) by spectrophotometric method", "format": "protein-complex assay, Homo sapiens"}, "A549 [14]": {"test_system": "A549", "test": "Induction of apoptosis in human A549 cells assessed as late apoptotic cells at 0.3 uM incubated for 72 hrs by Annexin V-FITC/propidium iodide-staining based flow cytometric analysis (reference value: 5.69%)", "format": "functional"}, "A549 [15]": {"test_system": "A549", "test": "Induction of cell cycle arrest in human A549 cells assessed as accumulation at G0/G1 phase at 0.1 uM incubated for 36 hrs by propidium iodide staining based flow cytometry (reference value: 72.51%)", "format": "functional"}, "A549 [16]": {"test_system": "A549", "test": "Induction of apoptosis in human A549 cells assessed as live cells at 10 uM incubated for 72 hrs by Annexin V-FITC/propidium iodide-staining based flow cytometric analysis (reference value: 89.8%)", "format": "functional"}, "HeLa": {"test_system": "HeLa", "test": "Antiproliferative activity against human HeLa cells assessed as cell growth inhibition incubated for 72 hrs by MTT assay", "format": "functional, cell-based"}, "A549 [17]": {"test_system": "A549", "test": "Induction of apoptosis in human A549 cells assessed as necrotic cells at 1 uM incubated for 72 hrs by Annexin V-FITC/propidium iodide-staining based flow cytometric analysis (reference value: 2.76%)", "format": "functional"}, "Histone deacetylase 8": {"molecular_target": "T1, Histone deacetylase 8 (Homo sapiens, UniProt Q9BY41)", "T1 sequence (Q9BY41 whole entry)": "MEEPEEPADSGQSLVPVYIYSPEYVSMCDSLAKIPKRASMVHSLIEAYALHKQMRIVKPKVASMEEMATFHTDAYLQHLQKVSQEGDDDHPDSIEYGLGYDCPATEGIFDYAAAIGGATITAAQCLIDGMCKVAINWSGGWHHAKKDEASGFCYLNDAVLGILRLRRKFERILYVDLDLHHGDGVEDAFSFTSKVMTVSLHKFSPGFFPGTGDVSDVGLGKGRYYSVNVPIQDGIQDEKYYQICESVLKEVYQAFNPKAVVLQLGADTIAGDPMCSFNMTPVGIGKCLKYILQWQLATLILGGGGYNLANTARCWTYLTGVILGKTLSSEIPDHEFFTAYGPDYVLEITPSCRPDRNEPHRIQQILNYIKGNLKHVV", "test": "Inhibition of HDAC8 (unknown origin) using Boc-Lys(Ac)-AMC as substrate incubated for 60 mins by fluorescence assay"}, "A549 [18]": {"test_system": "A549", "test": "Induction of cell cycle arrest in human A549 cells assessed as accumulation at G0/G1 phase at 0.3 uM incubated for 36 hrs by propidium iodide staining based flow cytometry (reference value: 72.51%)", "format": "functional"}, "HCT-116": {"test_system": "HCT-116", "test": "Antiproliferative activity against human HCT116 cells assessed as cell growth inhibition incubated for 72 hrs by MTT assay", "format": "functional, cell-based", "details": "HCT-116, 72 h"}, "MDA-MB-231": {"test_system": "MDA-MB-231", "test": "Antiproliferative activity against human MDA-MB-231 cells assessed as cell growth inhibition incubated for 72 hrs by MTT assay", "format": "functional, cell-based", "details": "MDA-MB-231, 72 h"}, "A549 [19]": {"test_system": "A549", "test": "Induction of apoptosis in human A549 cells assessed as early apoptotic cells at 1 uM incubated for 72 hrs by Annexin V-FITC/propidium iodide-staining based flow cytometric analysis (reference value: 1.8%)", "format": "functional"}, "A549 [20]": {"test_system": "A549", "test": "Induction of apoptosis in human A549 cells assessed as necrotic cells at 10 uM incubated for 72 hrs by Annexin V-FITC/propidium iodide-staining based flow cytometric analysis (reference value: 2.76%)", "format": "functional"}, "LoVo": {"test_system": "LoVo", "test": "Antiproliferative activity against human LoVo cells assessed as cell growth inhibition incubated for 72 hrs by MTT assay", "format": "functional, cell-based"}}}
{"compound": "COc1ccc(/C=C(\\C)C(=O)c2cc(OC)c(OC)c(OC)c2)cc1OCCCC(=O)NO", "values": [{"measurement": "Activity", "setting": "A549 [1]", "value": 58.9, "unit": "%"}, {"measurement": "Activity", "setting": "A549 [2]", "value": 9.41, "unit": "%"}, {"measurement": "Activity", "setting": "A549 [3]", "value": 28.5, "unit": "%"}, {"measurement": "inhibition", "setting": "[4]", "value": 19.9, "unit": "%"}, {"measurement": "Activity", "setting": "A549 [5]", "value": 2.19, "unit": "%"}, {"measurement": "IC50", "setting": "MCF7", "value": 7.33, "unit": "µM"}, {"measurement": "Activity", "setting": "A549 [6]", "value": 13.81, "unit": "%"}, {"measurement": "Activity", "setting": "A549 [7]", "value": 62.89, "unit": "%"}, {"measurement": "IC50", "setting": "SGC-7901", "value": 1.06, "unit": "µM"}, {"measurement": "Activity", "setting": "A549 [8]", "value": 1.57, "unit": "%"}, {"measurement": "Activity", "setting": "A549 [9]", "value": 10.18, "unit": "%"}, {"measurement": "Activity", "setting": "A549 [10]", "value": "Dose-dependent effect"}, {"measurement": "Activity", "setting": "A549 [11]", "value": 9.13, "unit": "%"}, {"measurement": "Activity", "setting": "A549 [12]", "value": 79.9, "unit": "%"}, {"measurement": "Activity", "setting": "A549 [13]", "value": 7.73, "unit": "%"}, {"measurement": "IC50", "setting": "Tubulin", "value": 54.5, "unit": "µM"}, {"measurement": "Activity", "setting": "A549 [14]", "value": 10.1, "unit": "%"}, {"measurement": "Activity", "setting": "A549 [15]", "value": 68.44, "unit": "%"}, {"measurement": "Activity", "setting": "A549 [16]", "value": 54.7, "unit": "%"}, {"measurement": "IC50", "setting": "HeLa", "value": 0.89, "unit": "µM"}, {"measurement": "Activity", "setting": "A549 [17]", "value": 8.05, "unit": "%"}, {"measurement": "IC50", "setting": "Histone deacetylase 8", "value": 1.7, "unit": "µM"}, {"measurement": "Activity", "setting": "A549 [18]", "value": 46.23, "unit": "%"}, {"measurement": "IC50", "setting": "HCT-116", "value": 7.46, "unit": "µM"}, {"measurement": "IC50", "setting": "MDA-MB-231", "value": 6.95, "unit": "µM"}, {"measurement": "Activity", "setting": "A549 [19]", "value": 6.6, "unit": "%"}, {"measurement": "Activity", "setting": "A549 [20]", "value": 8, "unit": "%"}, {"measurement": "IC50", "setting": "LoVo", "value": 4.88, "unit": "µM"}]}
